Experiments:
[1] = test system: sulfate reducing bacteria; assay: Efficacy in inhibiting H2S production from sulfate reducing bacteria; assay type: cell-based
Protocol: To understand the hydrogen sulfide inhibition efficacy of the N-hydroxycarboxamide compounds of the present invention, several compounds were tested. Some compounds that can be used in this H2S inhibiting composition are disclosed in Table 2. For the testing procedures, the compounds were dissolved in DMSO, resulting in a stock solution of about 8000-100000 ppm, which was subsequently diluted in 96-well plates or 10 mL serum vials containing media and selected culture to give varying concentrations from 0.09 to 1000 ppm of the compounds in final solution for efficacy testing.
Strains of commonly found bacteria were used for testing the efficacy of the compounds, viz. Desulfovibrio alaskensis, Desulfovibrio longus and Desulfovibrio gabonensis. Media for the cultures was also prepared by using a standard method. The cultures were aseptically used and incubated under anaerobic conditions. Two well established methods were used for testing various compounds:
The compounds C1, C12, C14, C15 and C16 were tested individually to understand each of their efficacies in inhibiting the H2S production from sulfate reducing bacteria, under standard temperature and pressure conditions. The efficacy of compounds C14 and C15 against hydrogen sulfide production are disclosed in Example 1, Tables 6 and 7.

[2] = test system: Desulfovibrio alaskensis 14563; assay: H2S and Log (Growth) efficacy against SRB, 96-Well Plate Method; assay type: cell-based
Protocol: A lyophilized Desulfovibrio alaskensis 14563, Desulfovibrio longus 51456, and Desulfovibrio gabonensis 700201 pure cultures received from ATCC were resuspended individually in 500 ul of MB 1250. Aseptically, the content was transferred to a 5-mL tube of MB1250 medium. The cultures were incubated in an anaerobic chamber at 30° C. for 72 hrs. Subsequently, an individual stock culture with a final concentration of 25% glycerol were prepared by adding equal volumes of culture and 50% glycerol. 1 ml of the cultures were then transferred to 2-ml cryogenic vials and stored at −80° C. The purity of the stock cultures was evaluated through PCR, by amplifying the 16S rDNA region, and thus, it was verified that the original ATCC sample was a pure culture. 48-hour cultures of ATCC Desulfovibrio alaskensis 14563, Desulfovibrio longus 51456, and Desulfovibrio gabonensis 700201 were prepared in an anaerobic chamber. Each culture was prepared as a 1:10 culture by taking 1 milliliter (mL) of a pure culture and inoculating 9 milliliters (mL) of fresh MB1250 media. The Desulfovibrio alaskensis 14563 and Desulfovibrio gabonensis 700201 were all grown at 30° C. and the Desulfovibrio longus 51456 culture was grown at 35° C.
After the 48-hour incubation, 600 microliters (μL) were taken from each culture and optical density (OD) was measured using a Thermofisher Spectronic 200 Spectrophotometer at 600 nm. Each culture was diluted to 0.05 OD600 in fresh MB1250 media and added to the 96 well plates. Edge wells were not used due to their inherent variability and evaporation of the media. Each of the components were added at their respective concentrations for a final volume of 500 μL per well. In Table 3, 6 and 7, the concentrations of the compound used for the experiments are listed. Each experiment was done with at least three replicates for different treatments and non-treatment controls. […] Plates were then sealed with a titer-top and placed into anaerobic boxes and incubated in an anaerobic incubator at 30° C.
At each time point, sulfide samples were taken, and enumeration plates were made. Enumeration plates were made to determine the log growth in each dosed sample. For this process, enumeration plates were prepared by adding 180 μL fresh media MB1250 containing 0.01 wt % ferrous ammonium sulfate. 20 μL was taken from each well of the challenge plates and transferred to the enumeration plates using a 20-200 μL multichannel pipette. Enumeration plates were mixed three times using the multichannel pipette and serial diluted down the plate tenfold (20 μL into 180 μL). This serial dilution process was repeated for all challenge plate rows giving a total of 6 enumeration plates.
After 7 days these enumeration plates were read. The ferrous ammonium sulfate in each plate would be converted to iron sulfide, changing wells with SRB growth from clear to black. By counting the number of black wells in a row, the log growth from the original well in the challenge plate can be determined.
To determine hydrogen sulfide production in each sample, sulfide samples were also taken from each challenge plate. From each well, 9 μL were taken and added to 60 μL of 2% zinc acetate with 0.02% acetic acid. Then, 180 μL of milliQ water was added. 60 μL of stock solution 1 containing 64% sulfuric acid, <1% Dimethyl-4-phenylenediamine (DMPD), water to 100% was added to each well on the plates. This was followed by 3 μL of stock solution 3 containing 50% Iron (III) chloride. All chemicals are ordered from Fisher Scientific and used as received. These were mixed three times and read after 15 minutes. The plates were read at 670 nm using a Biotek microplate reader. Absorbance readings were converted to mM using a standard curve and this was converted to parts per million using the molar mass of sulfur. The standard curves were made using sodium sulfide nonahydrate solutions to give final solutions of 0, 0.125, 0.25 0.5, 1.0, and 1.5 ppm.

O=C(NO)c1ccccc1 [C15]
activity in reducing H2S production ([1]; Tables 6 and 7): did not show significant activity | H2S ([2]; Table 6 run, 2 days, 7.615 PPM): 103.6 PPM | Log (Growth) ([2]; Table 6 run, 2 days, 7.615 PPM): 7.7 | H2S ([2]; Table 6 run, 2 days, 15.75 PPM): 54.7 PPM | Log (Growth) ([2]; Table 6 run, 2 days, 15.75 PPM): 7.7 | H2S ([2]; Table 6 run, 2 days, 31.25 PPM): 54.4 PPM | Log (Growth) ([2]; Table 6 run, 2 days, 31.25 PPM): 7.0 | H2S ([2]; Table 6 run, 2 days, 125 PPM): 130.2 PPM | Log (Growth) ([2]; Table 6 run, 2 days, 125 PPM): 7.3 | H2S ([2]; Table 6 run, 2 days, 500 PPM): 155.7 PPM | Log (Growth) ([2]; Table 6 run, 2 days, 500 PPM): 7.3 | H2S ([2]; Table 6 run, 2 days, 1000 PPM): 130.7 PPM | Log (Growth) ([2]; Table 6 run, 2 days, 1000 PPM): 8.0 | H2S ([2]; Table 6 run, 5 days, 7.615 PPM): 35.2 PPM | Log (Growth) ([2]; Table 6 run, 5 days, 7.615 PPM): 8.0 | H2S ([2]; Table 6 run, 5 days, 15.75 PPM): 42.7 PPM | Log (Growth) ([2]; Table 6 run, 5 days, 15.75 PPM): 7.3 | H2S ([2]; Table 6 run, 5 days, 31.25 PPM): 26.3 PPM | Log (Growth) ([2]; Table 6 run, 5 days, 31.25 PPM): 7.7 | H2S ([2]; Table 6 run, 5 days, 125 PPM): 55.5 PPM | Log (Growth) ([2]; Table 6 run, 5 days, 125 PPM): 7.0 | H2S ([2]; Table 6 run, 5 days, 500 PPM): 31.8 PPM | Log (Growth) ([2]; Table 6 run, 5 days, 500 PPM): 7.0 | H2S ([2]; Table 6 run, 5 days, 1000 PPM): 73.3 PPM | Log (Growth) ([2]; Table 6 run, 5 days, 1000 PPM): 8.0

CCCCCCCC(=O)NO [C16]
efficacy for inhibiting hydrogen sulfide production ([1]; anaerobic conditions): high efficacy | H2S ([2]; Table 7 run, 2 days, 7.615 PPM): 83.5 PPM | Log (Growth) ([2]; Table 7 run, 2 days, 7.615 PPM): 7.7 | H2S ([2]; Table 7 run, 2 days, 15.75 PPM): 76.9 PPM | Log (Growth) ([2]; Table 7 run, 2 days, 15.75 PPM): 7.7 | H2S ([2]; Table 7 run, 2 days, 31.25 PPM): 35.1 PPM | Log (Growth) ([2]; Table 7 run, 2 days, 31.25 PPM): 7.3 | H2S ([2]; Table 7 run, 2 days, 125 PPM): 13.3 PPM | Log (Growth) ([2]; Table 7 run, 2 days, 125 PPM): 6.3 | H2S ([2]; Table 7 run, 2 days, 500 PPM): 2.7 PPM | Log (Growth) ([2]; Table 7 run, 2 days, 500 PPM): 5.3 | H2S ([2]; Table 7 run, 2 days, 1000 PPM): 2.2 PPM | Log (Growth) ([2]; Table 7 run, 2 days, 1000 PPM): 3.0 | H2S ([2]; Table 7 run, 5 days, 7.615 PPM): 27.7 PPM | Log (Growth) ([2]; Table 7 run, 5 days, 7.615 PPM): 7.3 | H2S ([2]; Table 7 run, 5 days, 15.75 PPM): 29.2 PPM | Log (Growth) ([2]; Table 7 run, 5 days, 15.75 PPM): 7.0 | H2S ([2]; Table 7 run, 5 days, 31.25 PPM): 22.1 PPM | Log (Growth) ([2]; Table 7 run, 5 days, 31.25 PPM): 7.3 | H2S ([2]; Table 7 run, 5 days, 125 PPM): 6.9 PPM | Log (Growth) ([2]; Table 7 run, 5 days, 125 PPM): 5.0 | H2S ([2]; Table 7 run, 5 days, 500 PPM): 2.1 PPM | Log (Growth) ([2]; Table 7 run, 5 days, 500 PPM): 4.3 | H2S ([2]; Table 7 run, 5 days, 1000 PPM): 2.0 PPM | Log (Growth) ([2]; Table 7 run, 5 days, 1000 PPM): 0.0
